According to patent publication US20140112895A1, “GLP-1 PROMOTER MEDIATED INSULIN EXPRESSION FOR THE TREATMENT OF DIABETES” (priority 2010, published 2014):

System: STC-1 cells
Experiment: MTT assay of antibiotic cytotoxicity on STC-1 cells
Type: cell-based, mouse
Conditions: STC-1 cells without antibiotic resistant gene; antibiotic range 0 to 1 mg/ml; optical density read at 560 nm
Source text: For assessment of antibiotic cytotoxicity, a common methodology is the MTT assay which has been widely used as a colorimetric approach based on the activity of living cells. MTT assay is a standard assay (an assay which measures changes in color) for measuring cellular proliferation. Yellow MTT (3-(4,5-Dimethylthiazol-2-yl)-2,5-diphenyltetrazolium bromide, a tetrazole) is reduced to purple formazan in the mitochondria of living cells. The absorbance of this colored solution can be quantified by measuring at a certain wavelength (usually between 500 and 600 nm) by a spectrophotometer.
Therefore, the MTT assay was done for both antibiotics to determine the appropriate concentration of the antibiotic that kills the entire STC-1 cells lacking the antibiotic resistant gene. In this case, STC-1 cells (without any antibiotic resistant gene) were treated with different concentration of zeocin and geneticin antibiotic. The concentration of antibiotics in the culture media was in the range of 0 to 1 mg/ml in 12 wells (Table 7).
Optical density of solutions was read at 560 nm on an ELISA plate reader. The absorbance of colored solution is directly proportional to the number of cells. Based on MTT assay result, the concentration of geneticin and zeocin antibiotic that are able to kill all the STC-1 cells (without antibiotic resistant gene) were 400 ug/ml and 500 ug/ml.

CN[C@@H]1[C@@H](O)[C@@H](O[C@@H]2[C@@H](O)[C@H](O[C@H]3O[C@H]([C@@H](C)O)[C@@H](O)[C@H](O)[C@H]3N)[C@@H](N)C[C@H]2N)OC[C@]1(C)O [geneticin]
concentration of antibiotic able to kill all the STC-1 cells: 400 µg/mL

Cc1c(N)nc([C@H](CC(N)=O)NC[C@H](N)C(N)=O)nc1C(=O)N[C@H](C(=O)N[C@H](C)[C@@H](O)[C@H](C)C(=O)N[C@H](C(=O)NCCC1=N[C@@H](c2nc(C(=O)NCCCCN=C(N)N)cs2)CS1)[C@@H](C)O)[C@@H](O[C@@H]1O[C@@H](CO)[C@@H](O)[C@H](O)[C@@H]1O[C@H]1O[C@H](CO)[C@@H](O)[C@H](OC(N)=O)[C@@H]1O)c1cnc[nH]1 [zeocin]
concentration of antibiotic able to kill all the STC-1 cells: 500 µg/mL
